Laboratory results: patent publication US10844077B2, “Thiazolyl-containing compounds for treating proliferative diseases” (Dana-Farber Cancer Institute, Inc., priority 2014, dated 2020)
Values joined by “and” are separate entries in the source; they are usually repeats but may differ in a detail not shown here. Equal entries are not always repeated. Where two headings read alike, the source gives them in different places.

Experiments:
[1] = biological target: NDR1 (Homo sapiens (Human), UniProt Q15208); test: KINATIV assay; assay type: cell-based; settings: 1 μM, 90 minutes, BCWM.1 cells
Summary of the method: (§1)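 Lysed cells serve as the kinase source; labeling uses an ATP-biotin probe added directly to lysate. ACTIVX then identifies and measures the captured kinases, with compound samples in duplicate against duplicate or quadruplicate controls.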

[2] = biological target: T1, kinases in BCWM.1 cells (Homo sapiens, UniProt P23458); test: KINATIV assay of compounds I-3 and I-9, lysate directly labeled with ATP-biotin probe (no GF); assay type: cell-based; settings: JAK1 domain2; Activation Loop; 1 μM; no GF
Procedure: (§2) The cells were harvested and lysed. […] Bound kinases were identified and quantitated by ACTIVX as described in Patricelli et al., Biochemistry, 2007, 46(2): 350-358. The compounds were tested in duplicates against duplicate or quadruplicate control samples.

[3] = biological target: T2, kinases in BCWM.1 cells (Homo sapiens, UniProt Q13418); test: as above; assay type: cell-based; settings: ILK; Protein Kinase Domain; 1 μM; no GF
Procedure: as §2

[4] = biological target: kinases in BCWM.1 cells (Homo sapiens, UniProt Q5TCX8); test: as above; assay type: cell-based; settings: MLK4; Lys2; 1 μM; no GF
Procedure: as §2

[5] = biological target: kinases in BCWM.1 cells (Homo sapiens, UniProt Q8NB16); test: as above; assay type: cell-based; settings: MLKL; Lys1; 1 μM; no GF
Procedure: as §2

[6] = biological target: kinases in BCWM.1 cells (Homo sapiens, UniProt P49841); test: as above; assay type: cell-based; settings: GSK3B; Lys2; 1 μM; no GF
Procedure: as §2

[7] = biological target: kinases in BCWM.1 cells (Homo sapiens, UniProt Q13572); test: as above; assay type: cell-based; settings: ITPK1; ATP; 1 μM; no GF
Procedure: as §2

[8] = biological target: kinases in BCWM.1 cells (Homo sapiens, UniProt P27361); test: as above; assay type: cell-based; settings: Erk1; Lys2; 1 μM; no GF
Procedure: as §2

[9] = biological target: kinases in BCWM.1 cells (Homo sapiens, UniProt Q9Y6E0); test: as above; assay type: cell-based; settings: MST3; Lys2; 1 μM; no GF
Procedure: as §2

[10] = biological target: kinases in BCWM.1 cells (Homo sapiens, UniProt Q99755); test: as above; assay type: cell-based; settings: PIP5K1A; ATP; 1 μM, 90 min; no GF
Procedure: as §2

[11] = biological target: kinases in BCWM.1 cells (Homo sapiens, UniProt Q96RR4); test: as above; assay type: cell-based; settings: CaMKK2; Lys2; 1 μM; no GF
Procedure: as §2

[12] = biological target: kinases in BCWM.1 cells (Homo sapiens, UniProt Q15831); test: as above; assay type: cell-based; settings: LKB1; Lys2; 1 μM; no GF
Procedure: as §2

[13] = biological target: kinases in BCWM.1 cells (Homo sapiens, UniProt P49840); test: as above; assay type: cell-based; settings: GSK3A; Lys2; 1 μM; no GF
Procedure: as §2

[14] = biological target: kinases in BCWM.1 cells (Homo sapiens, UniProt Q96L34); test: as above; assay type: cell-based; settings: MARK4; Lys2; 1 μM; no GF
Procedure: as §2

[15] = biological target: IKKb (Homo sapiens (Human), UniProt O14920); test: KINATIV assay; assay type: cell-based; settings: 1 μM, 90 minutes, BCWM.1 cells
Summary of the method: as §1

[16] = biological target: JAK3 domain2 (Homo sapiens (Human), UniProt P52333); test: KINATIV assay; assay type: cell-based; settings: 1 μM, 90 minutes, BCWM.1 cells
Summary of the method: as §1

[17] = biological target: CDK7 (Homo sapiens (Human), UniProt P50613); test: KINATIV assay; assay type: cell-based; settings: 1 μM, 90 minutes, BCWM.1 cells
Summary of the method: as §1

[18] = biological target: DNAPK (Homo sapiens (Human), UniProt P78527); test: KINATIV assay; assay type: cell-based; settings: 1 μM, 90 minutes, BCWM.1 cells
Summary of the method: as §1

[19] = biological target: PFTAIRE1 (Homo sapiens (Human), UniProt O94921)
Procedure: The cells were harvested and lysed. The lysates were directly labeled with an ATP-biotin probe. Bound kinases were identified and quantitated by ACTIVX as described in Patricelli et al., Biochemistry, 2007, 46(2): 350-358. The compounds were tested in duplicates against duplicate or quadruplicate control samples.

[20] = biological target: p38a (Homo sapiens (Human), UniProt Q16539); test: KINATIV assay; assay type: cell-based; settings: 1 μM, 90 minutes, BCWM.1 cells
Summary of the method: as §1

[21] = test system: MAP2K1, MAP2K2; test: KINATIV assay; assay type: cell-based; settings: 1 μM, 90 minutes, BCWM.1 cells
Summary of the method: as §1

[22] = biological target: T1, kinases in BCWM.1 cells; assay type: cell-based; settings: 1 μM, GF
Procedure: as §2

[23] = biological target: T2, kinases in BCWM.1 cells; assay type: cell-based; settings: ILK, 1 μM, GF
Procedure: as §2

[24] = biological target: kinases in BCWM.1 cells (Homo sapiens, UniProt Q99759); assay type: cell-based; settings: MAP3K3; Lys1; 1 μM; GF
Procedure: as §2

[25] = biological target: kinases in BCWM.1 cells (Homo sapiens, UniProt Q16566); assay type: cell-based; settings: CaMK4; Lys2; 1 μM; GF
Procedure: as §2

[26] = biological target: kinases in BCWM.1 cells (Homo sapiens, UniProt Q13233); assay type: cell-based; settings: MAP3K1; Lys2; 1 μM; GF
Procedure: as §2

[27] = biological target: kinases in BCWM.1 cells (Homo sapiens, UniProt P51956); test: KINATIV assay of compounds I-3 and I-9, lysate directly labeled with ATP-biotin probe (no GF); assay type: cell-based; settings: NEK3; Activation Loop; 1 μM, 90 min; no GF
Procedure: as §2

[28] = biological target: kinases in BCWM.1 cells (Homo sapiens, UniProt Q9C0K7); test: as above; assay type: cell-based; settings: STLK6; Lys1; 1 μM, 90 min; no GF
Procedure: as §2

[29] = biological target: kinases in BCWM.1 cells (Homo sapiens, UniProt O94806); test: as above; assay type: cell-based; settings: PKD3; Lys1; 1 μM, 90 min; no GF
Procedure: as §2

[30] = biological target: SLK (Homo sapiens (Human), UniProt Q9H2G2); test: KINATIV assay; assay type: cell-based; settings: 1 μM, 90 minutes, BCWM.1 cells
Summary of the method: as §1

Sequence of SLK (Q9H2G2 whole entry): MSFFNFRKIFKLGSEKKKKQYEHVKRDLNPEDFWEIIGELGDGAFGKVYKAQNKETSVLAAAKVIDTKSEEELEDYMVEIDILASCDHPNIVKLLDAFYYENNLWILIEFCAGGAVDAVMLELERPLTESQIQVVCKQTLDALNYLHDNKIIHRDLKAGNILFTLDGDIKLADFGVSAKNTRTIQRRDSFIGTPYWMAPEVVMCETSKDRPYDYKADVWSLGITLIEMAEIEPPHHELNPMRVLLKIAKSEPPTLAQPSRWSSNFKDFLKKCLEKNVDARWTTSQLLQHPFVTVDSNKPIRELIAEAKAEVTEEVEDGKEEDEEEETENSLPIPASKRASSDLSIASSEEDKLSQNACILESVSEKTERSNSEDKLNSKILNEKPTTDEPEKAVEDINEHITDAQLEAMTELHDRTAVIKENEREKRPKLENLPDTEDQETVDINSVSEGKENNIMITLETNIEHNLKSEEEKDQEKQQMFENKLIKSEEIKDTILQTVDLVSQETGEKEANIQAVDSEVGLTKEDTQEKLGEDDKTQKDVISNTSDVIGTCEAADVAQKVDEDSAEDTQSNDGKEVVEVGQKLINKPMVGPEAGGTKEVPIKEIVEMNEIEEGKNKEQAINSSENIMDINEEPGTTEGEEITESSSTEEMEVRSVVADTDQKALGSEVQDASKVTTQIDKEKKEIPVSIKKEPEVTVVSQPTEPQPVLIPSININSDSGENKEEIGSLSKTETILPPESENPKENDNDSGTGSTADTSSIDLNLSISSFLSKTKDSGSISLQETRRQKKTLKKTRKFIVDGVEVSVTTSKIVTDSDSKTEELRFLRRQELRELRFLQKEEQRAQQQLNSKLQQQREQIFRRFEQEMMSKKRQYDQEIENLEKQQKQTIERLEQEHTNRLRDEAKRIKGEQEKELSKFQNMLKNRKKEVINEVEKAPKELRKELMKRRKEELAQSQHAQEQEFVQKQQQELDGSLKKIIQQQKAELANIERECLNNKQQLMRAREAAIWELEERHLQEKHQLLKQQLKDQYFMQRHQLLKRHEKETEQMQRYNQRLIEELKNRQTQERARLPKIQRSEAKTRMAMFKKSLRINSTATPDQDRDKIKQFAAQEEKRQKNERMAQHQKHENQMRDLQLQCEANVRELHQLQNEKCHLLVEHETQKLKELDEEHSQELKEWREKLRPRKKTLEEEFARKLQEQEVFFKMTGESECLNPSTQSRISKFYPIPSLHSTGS
Sequence of kinases in BCWM.1 cells (Homo sapiens, UniProt P27361) (P27361 2-379 limits assumed): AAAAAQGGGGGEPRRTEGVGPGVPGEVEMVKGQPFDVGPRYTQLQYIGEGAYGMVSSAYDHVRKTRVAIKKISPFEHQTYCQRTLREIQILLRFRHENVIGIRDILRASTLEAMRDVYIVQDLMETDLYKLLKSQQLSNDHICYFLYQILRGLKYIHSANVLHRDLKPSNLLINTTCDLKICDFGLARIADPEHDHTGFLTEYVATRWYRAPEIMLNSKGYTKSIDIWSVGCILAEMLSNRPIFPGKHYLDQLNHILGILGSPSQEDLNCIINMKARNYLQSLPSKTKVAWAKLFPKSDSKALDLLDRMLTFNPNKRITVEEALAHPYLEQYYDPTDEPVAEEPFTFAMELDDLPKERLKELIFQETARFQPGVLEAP
Sequence of kinases in BCWM.1 cells (Homo sapiens, UniProt Q96RR4) (Q96RR4 2-588 limits assumed): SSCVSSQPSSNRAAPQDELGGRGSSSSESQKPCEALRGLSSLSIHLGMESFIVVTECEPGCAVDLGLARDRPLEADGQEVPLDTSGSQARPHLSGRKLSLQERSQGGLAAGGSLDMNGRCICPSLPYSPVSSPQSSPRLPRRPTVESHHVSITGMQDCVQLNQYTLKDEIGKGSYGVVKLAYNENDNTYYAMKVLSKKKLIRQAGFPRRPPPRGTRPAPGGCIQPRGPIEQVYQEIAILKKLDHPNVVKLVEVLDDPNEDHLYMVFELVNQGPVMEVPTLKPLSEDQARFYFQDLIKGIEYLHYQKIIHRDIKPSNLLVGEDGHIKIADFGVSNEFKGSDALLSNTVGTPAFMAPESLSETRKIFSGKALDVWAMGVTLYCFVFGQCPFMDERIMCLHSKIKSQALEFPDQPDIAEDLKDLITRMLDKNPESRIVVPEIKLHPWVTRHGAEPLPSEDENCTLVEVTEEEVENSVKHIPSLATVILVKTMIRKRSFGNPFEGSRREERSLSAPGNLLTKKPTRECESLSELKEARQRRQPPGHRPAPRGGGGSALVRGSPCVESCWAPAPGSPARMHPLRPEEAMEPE
Sequence of PFTAIRE1 (O94921 whole entry, looked up): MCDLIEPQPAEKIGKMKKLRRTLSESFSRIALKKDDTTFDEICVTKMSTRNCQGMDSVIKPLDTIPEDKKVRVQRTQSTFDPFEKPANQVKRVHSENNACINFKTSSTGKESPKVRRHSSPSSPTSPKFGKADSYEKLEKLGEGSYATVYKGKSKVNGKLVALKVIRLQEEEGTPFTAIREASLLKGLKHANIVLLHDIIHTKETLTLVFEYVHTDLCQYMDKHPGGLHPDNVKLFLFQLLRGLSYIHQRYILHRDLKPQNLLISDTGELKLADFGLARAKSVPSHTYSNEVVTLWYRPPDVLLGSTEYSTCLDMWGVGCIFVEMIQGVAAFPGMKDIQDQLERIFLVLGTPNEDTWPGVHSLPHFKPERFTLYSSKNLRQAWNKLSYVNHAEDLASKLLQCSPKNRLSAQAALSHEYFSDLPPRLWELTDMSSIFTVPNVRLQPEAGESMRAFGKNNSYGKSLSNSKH
Sequence of kinases in BCWM.1 cells (Homo sapiens, UniProt P49840) (P49840 2-483 limits assumed): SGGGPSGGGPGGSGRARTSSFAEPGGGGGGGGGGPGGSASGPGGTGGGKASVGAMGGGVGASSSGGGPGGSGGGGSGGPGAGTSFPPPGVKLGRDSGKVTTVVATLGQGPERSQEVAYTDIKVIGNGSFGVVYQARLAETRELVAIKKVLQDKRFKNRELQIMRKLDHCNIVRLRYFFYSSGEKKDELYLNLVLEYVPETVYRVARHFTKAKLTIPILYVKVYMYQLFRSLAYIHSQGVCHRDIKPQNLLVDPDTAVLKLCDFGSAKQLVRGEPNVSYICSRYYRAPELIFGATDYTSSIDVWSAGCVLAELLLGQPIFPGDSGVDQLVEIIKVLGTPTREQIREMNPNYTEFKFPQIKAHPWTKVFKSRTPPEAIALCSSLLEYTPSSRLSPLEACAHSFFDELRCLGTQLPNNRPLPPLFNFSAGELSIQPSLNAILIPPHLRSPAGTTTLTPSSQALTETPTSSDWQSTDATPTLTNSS
Sequence of CDK7 (P50613 2-346): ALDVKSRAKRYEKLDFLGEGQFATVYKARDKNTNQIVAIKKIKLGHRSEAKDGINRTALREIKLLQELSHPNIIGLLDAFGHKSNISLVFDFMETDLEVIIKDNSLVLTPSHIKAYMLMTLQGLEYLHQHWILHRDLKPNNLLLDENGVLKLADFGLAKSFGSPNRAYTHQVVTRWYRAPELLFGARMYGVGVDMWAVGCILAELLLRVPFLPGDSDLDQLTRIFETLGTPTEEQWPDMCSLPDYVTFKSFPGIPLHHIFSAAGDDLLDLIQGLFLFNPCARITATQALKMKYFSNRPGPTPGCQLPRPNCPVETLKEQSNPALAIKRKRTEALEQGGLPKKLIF
Sequence of CDK7 (P51946 whole entry partner): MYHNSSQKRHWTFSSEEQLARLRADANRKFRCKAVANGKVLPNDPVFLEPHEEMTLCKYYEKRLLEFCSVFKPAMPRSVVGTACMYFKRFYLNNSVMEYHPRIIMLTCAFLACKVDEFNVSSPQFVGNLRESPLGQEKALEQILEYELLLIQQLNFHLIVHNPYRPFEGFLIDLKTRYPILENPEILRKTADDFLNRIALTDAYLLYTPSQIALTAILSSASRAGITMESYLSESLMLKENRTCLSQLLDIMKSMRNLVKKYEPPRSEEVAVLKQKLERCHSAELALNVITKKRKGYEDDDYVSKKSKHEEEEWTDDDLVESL
Sequence of CDK7 (P51948 whole entry partner): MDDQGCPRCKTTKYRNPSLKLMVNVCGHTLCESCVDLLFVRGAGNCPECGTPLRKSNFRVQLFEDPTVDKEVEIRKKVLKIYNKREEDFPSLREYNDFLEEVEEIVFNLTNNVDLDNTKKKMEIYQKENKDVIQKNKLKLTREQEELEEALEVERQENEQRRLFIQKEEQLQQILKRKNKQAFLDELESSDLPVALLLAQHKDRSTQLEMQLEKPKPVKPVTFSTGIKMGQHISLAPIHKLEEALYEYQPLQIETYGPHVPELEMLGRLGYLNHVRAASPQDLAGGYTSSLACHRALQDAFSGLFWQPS
Sequence of NDR1 (Q15208 whole entry): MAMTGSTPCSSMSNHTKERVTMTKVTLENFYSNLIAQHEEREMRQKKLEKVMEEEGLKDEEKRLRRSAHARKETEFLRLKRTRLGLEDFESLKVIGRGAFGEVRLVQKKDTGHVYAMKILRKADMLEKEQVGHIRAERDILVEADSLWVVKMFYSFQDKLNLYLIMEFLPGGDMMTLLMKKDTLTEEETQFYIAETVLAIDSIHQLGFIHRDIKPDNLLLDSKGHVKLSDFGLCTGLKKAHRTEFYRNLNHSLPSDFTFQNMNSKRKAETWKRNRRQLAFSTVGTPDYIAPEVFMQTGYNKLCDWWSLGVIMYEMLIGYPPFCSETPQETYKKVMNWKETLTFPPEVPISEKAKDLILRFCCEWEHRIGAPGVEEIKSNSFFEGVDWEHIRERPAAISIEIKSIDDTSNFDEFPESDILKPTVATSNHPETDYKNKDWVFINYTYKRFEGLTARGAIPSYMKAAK
Sequence of p38a (Q16539 whole entry): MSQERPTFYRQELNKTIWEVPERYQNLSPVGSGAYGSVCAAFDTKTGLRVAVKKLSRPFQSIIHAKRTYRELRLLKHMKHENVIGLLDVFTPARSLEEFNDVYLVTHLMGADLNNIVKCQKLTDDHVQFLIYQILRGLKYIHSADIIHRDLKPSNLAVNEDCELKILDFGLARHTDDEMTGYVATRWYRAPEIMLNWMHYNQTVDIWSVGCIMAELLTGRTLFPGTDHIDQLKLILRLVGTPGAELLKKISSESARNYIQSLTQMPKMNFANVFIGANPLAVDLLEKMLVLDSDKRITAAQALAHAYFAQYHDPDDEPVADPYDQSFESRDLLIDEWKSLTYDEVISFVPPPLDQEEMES

C=CC(=O)N1CCC(CNc2nccc(Nc3ncc(C(=O)Nc4c(C)cccc4C)s3)n2)C1 (racemic) [Example I-8]
% change of MS signal compared to control sample [1]: −0.8% and 2.2%

C=CC(=O)N1CC[C@H](Nc2nccc(Nc3ncc(C(=O)Nc4c(C)cccc4C)s3)n2)C1 [Example I-3]
% change of MS signal compared to control sample [2]: −2.9% and −1.6%
% change of MS signal compared to control sample [3]: 3.6% and 9.7%
% change of MS signal compared to control sample [4]: −3.8% and −11.8%
% change of MS signal compared to control sample [5]: −5.6% and −4.6%
% change of MS signal compared to control sample [6]: 9.4% and −0.5%
% change of MS signal compared to control sample [7]: 8.5% and 1.5%
% change of MS signal compared to control sample [8]: −0.6% and 1.5%
% change of MS signal compared to control sample [9]: −2% and −3.8%
% change of MS signal compared to control sample [10]: 26.2%
% change of MS signal compared to control sample [11]: −2.1% and 1.7%
% change of MS signal compared to control sample [12]: −11.2% and −8.7%
% change of MS signal compared to control sample [13]: 3.5% and 9%
% change of MS signal compared to control sample [14]: −8.5% and −8.7%

C=CC(=O)N1CC[C@@H](Nc2nccc(Nc3ncc(C(=O)Nc4c(C)cccc4C)s3)n2)C1 [Example I-4]
% change of MS signal compared to control sample [15]: 3.1% and 4.4%
% change of MS signal compared to control sample [16]: −30.8%
% change of MS signal compared to control sample [17]: 21.6% and 16.8%
% change of MS signal compared to control sample [18]: −80.8%
% change of MS signal compared to control sample [19]: 15.3% and 6.3%

C=CC(=O)N1CCCCC(Nc2nccc(Nc3ncc(C(=O)Nc4c(C)cccc4C)s3)n2)C1 (stereo not drawn) [Example I-7]
% change of MS signal compared to control sample [20]: 69.8% and 51.2%
% change of MS signal compared to control sample [21]: 7.4%

CCC(=O)N1CC[C@H](Nc2nccc(Nc3ncc(C(=O)Nc4c(C)cccc4C)s3)n2)C1 [Example I-9]
% change of MS signal compared to control sample ([22]; JAK1, Protein Kinase Domain): −11.5% and −6.7%
% change of MS signal compared to control sample ([22]; JAK1 domain2, Activation Loop): −15.6% and −13.9%
% change of MS signal compared to control sample ([22]; JAK1 domain2, Lys1): −18.1% and −14.4%
% change of MS signal compared to control sample ([23]; Lys1): −1.9% and 1.2%
% change of MS signal compared to control sample ([23]; Protein Kinase Domain): 24.5% and 12.4%
% change of MS signal compared to control sample [24]: −13.7% and −19.7%
% change of MS signal compared to control sample [25]: −10.3% and −13.1%
% change of MS signal compared to control sample [26]: 11.1% and 9.8%
% change of MS signal compared to control sample [27]: −21.2%
% change of MS signal compared to control sample [28]: 7.2%
% change of MS signal compared to control sample [29]: −15.2%

C=CC(=O)N1CCC(Cn2ccc(Nc3ncc(C(=O)Nc4c(C)cccc4Cl)s3)n2)C1 (stereo not drawn) [II-1]
% change of MS signal compared to control sample [30]: 0.0% and −3.6%
